The text below walks through data of paper PMC7701285, “A Strain-Specific Inhibitor of Receptor-Bound HIV-1 Targets a Pocket near the Fusion Peptide” (Cell Reports, 2020).

The target of this assay is B41 SOSIP.664 pseudotype parent; B41 (9032_08_A1) HIV-1 Env on pseudotyped virus (Human immunodeficiency virus 1, UniProt B3UES2). Put plainly: TZM-bl pseudovirus neutralization, luciferase. It counts as cell-based. Particulars: average, 1 h preincubation at 37°C, 1% DMSO, 48 h, entry read-out.

For `Cc1ccc(-c2ccc(NC(=O)N3CCC4(CCO4)CC3)cc2)cc1` [GO52], the IC50 was 1600 nM.
